{"source": "patent US12605350B2", "about": "“Composition for preventing, ameliorating, or treating disease caused by nitration of tyrosine in proteins comprising tyrosine as effective component” (INDUSTRY-ACADEMIC COOPERATION FOUNDATION GYEONGSANG …, priority 2020, dated 2026)", "key": {"[1]": {"test_system": "mouse model of epileptic seizure which has been induced to have seizure by kainic acid", "assay": "immunohistochemistry of hippocampal area (CA1, CA3): neurons (NeuN) and microglia (Iba1) after kainic acid", "format": "in vivo", "conditions": "tyrosine diet", "description": "Blood perfusion with PBS and PFA was carried out through animal heart, and the brain was removed and post-fixed in PFA for 15 hours or longer. After washing 3 times for 10 minutes with PBS, brain tissue specimen with thickness of 40 μm was obtained using a vibratome.\nIn IHC buffer solution (PBS containing 0.3% Triton X-100) in which 3% bovine serum albumin is dissolved, the above-obtained brain specimen was blocked for 1 hour at room temperature and then reacted at 4° C. for 15 hours or longer with a primary antibody (anti-NeuN (Millipore, MAB377, 1:500), anti-Ibal (Wako, 019-19741, 1:200)) (IHC buffer solution containing 3% BSA). After washing 3 times, each for 10 minutes, with the IHC buffer solution, it was reacted with a flurolabeled secondary antibody (anti-Mouse IgG Alexa Fluor 488 (Invitrogen, 1:1000), anti-Rabbit IgG AlexaFluor594 (Invitrogen, […])) for 2 hours at room temperature (IHC buffer solution containing 3% BSA). After washing 3 times, each for 10 minutes, with the IHC buffer solution, the specimen was fixed on a silane-coated glass slide. An anti-fade solution containing DAPI was added onto the specimen and then dried after covering with a cover glass. Signal density of an image photographed with a fluorescent microscope was analyzed by using Image J analysis program."}, "[2]": {"test_system": "acute renal failure caused by kidney ischemia or reperfusion injury", "assay": "plasma creatinine (Jaffe method), renal ischemia and reperfusion", "format": "in vivo, mouse", "conditions": "L-tyrosine 100 mg/kg oral for 4 days, 24 hours after ischemia and reperfusion", "description": "C57BL/6 male mouse (23 to 25 g, KOATECH, South Korea) was allowed to have free access to diets and water in sterile breeding room with constant temperature and humidity. The animals were divided into 3 test groups, i.e., 1) Control group (Sham), 2) Renal ischemia having treatment with prepared solvent and induced reperfusion group (CMC+IR), and 3) Renal ischemia having treatment with L-tyrosine and induced reperfusion group (L-Tyr+IR). L-Tyrosine (100 mg/kg) was suspended in 0.5% CMC (carboxymethyl cellulose). The animal was orally administered, once a day for 4 days, with L-tyrosine or the prepared solvent CMC. Thirty minutes after the oral administration on Day 4, renal ischemia was caused. Specifically, the animal abdomen was cut and renal pedicles at both sides were clamped using a Muller atraumatic vascular clamp to cause renal ischemia. […] Blood collected in the above was centrifuged for 15 minutes at 3,000 rpm to separate plasma, and blood creatinine was measured by using Jaffe method. With regard to Jaffe method, based on a difference between the absorbance measured at a wavelength of 510 nm after the reaction of plasma sample with picric acid and the absorbance measured after completing the reaction using 60% acetic acid, the amount of creatinine was calculated and it was expressed in unit of mg/dl."}, "[3]": {"test_system": "animal model of acute hepatic encephalopathy caused by AOM", "assay": "ammonia in blood, hepatic encephalopathy (hyperammonemia) caused by azoxymethane", "format": "in vivo, mouse", "conditions": "L-tyrosine 100 mg/kg oral once a day for 4 days, AOM 100 mg/kg i.p.", "description": "C57BL/6 male mouse (13-week old, KOATECH, South Korea) was allowed to have free access to diets and water in sterile breeding room with constant temperature and humidity. The animals were divided into 3 test groups, i.e., (1) Control group (Control), (2) Carboxymethyl cellulose+azoxymethane treatment group (CMC+AOM), and (3) L-Tyrosine+AOM treatment group (L-Tyr+AOM). L-Tyrosine (100 mg/kg) was suspended in 0.5% CMC (carboxymethyl cellulose). The animal was orally administered, once a day for 4 days, with L-tyrosine or the prepared solvent CMC. Two hours after the oral administration on Day 4, intraperitoneal injection of AOM (100 mg/kg, […]) was carried out. To prevent dehydration, the animal was intraperitoneally injected with […] of physiological saline, 12 hours after the administration of AOM. Four hours after the injection, the test animal was sacrificed, blood was collected from the heart, and the liver tissues were harvested. Amount of ammonia in blood was measured by using PocketChem BA PA-4140 (Arkray, Japan), which is an analytical device based on single wavelength reflectometry. Specifically, blood was applied in an amount of 20 μl on a test strip followed by reaction for 3 minutes. The strip was then inserted to the measurement device to obtain the absorbance at a wavelength of 635 nm (LED), which was then expressed in unit of μg/dl."}, "[4]": {"test_system": "nitrotyrosine protein", "assay": "nitrotyrosine protein in kidney tissues (Western blot), renal ischemia and reperfusion", "format": "in vivo, mouse", "conditions": "L-tyrosine 100 mg/kg oral for 4 days, 24 hours after ischemia and reperfusion", "description": "(§1) C57BL/6 male mouse (23 to 25 g, KOATECH, South Korea) was allowed to have free access to diets and water in sterile breeding room with constant temperature and humidity. The animals were divided into 3 test groups, i.e., 1) Control group (Sham), 2) Renal ischemia having treatment with prepared solvent and induced reperfusion group (CMC+IR), and 3) Renal ischemia having treatment with L-tyrosine and induced reperfusion group (L-Tyr+IR).\n(§2) L-Tyrosine (100 mg/kg) was suspended in 0.5% CMC (carboxymethyl cellulose). The animal was orally administered, once a day for 4 days, with L-tyrosine or the prepared solvent CMC. Thirty minutes after the oral administration on Day 4, renal ischemia was caused. Specifically, the animal abdomen was cut and renal pedicles at both sides were clamped using a Muller atraumatic vascular clamp to cause renal ischemia. After 25 minutes of blood ischemia, the clamp was removed followed by reperfusion. The control group (Sham) received the same operational procedures as above except the ischemia using clamp. Twenty-four hours after the reperfusion, the test animal was sacrificed, blood was collected from the heart, and the tissues were harvested.\nKidney tissues were homogenized with RIPA buffer solution. After centrifuge for 15 minutes at 16,000×g, 4° C., supernatant was collected and the protein quantification was carried out by BCA method. […]"}, "[5]": {"test_system": "NQO-1", "assay": "NQO-1 gene expression in kidney (quantitative real-time PCR), renal ischemia and reperfusion", "format": "in vivo, mouse", "conditions": "L-tyrosine 100 mg/kg oral once a day for 4 days, 24 hours after ischemia and reperfusion, vs prepared solvent", "description": "as §1\nas §2, with “Twenty-four hours after the reperfusion, the test animal was sacrificed, blood was collected from the heart, and the tissues were harvested.” left out\nAccording to Trizol method, total RNA was extracted from kidney tissues, and cDNA was synthesized by using Revert Aid Reverse Transcription System (ThermoFisher). Quantitative PCR was carried out with CFX Connect Real-Time PCR system (Bio-Rad) by using iQ SYBR Green Super mix (Bio-Rad). […]"}}, "note": "Entries after “also recorded” stand apart in the source; their conditions may differ.", "data": [{"smiles": "N[C@@H](Cc1ccc(O)cc1)C(=O)O", "note": "[tyrosine]", "values": [{"measurement": "activity of microglia in hippocampal area (CA1, CA3)", "setting": "[1]", "value": "reduced; also recorded: significant decrease in the activity of microglia"}, {"measurement": "number of the neuronal cells in hippocampal area (CA1, CA3)", "setting": "[1]", "value": "maintained without a loss"}]}, {"smiles": "N[C@@H](Cc1ccc(O)cc1)C(=O)O", "note": "[L-tyrosine]", "values": [{"measurement": "creatinine in plasma", "setting": "[2]", "value": "suppressed"}, {"measurement": "blood ammonia", "setting": "[3]", "value": "suppressed"}, {"measurement": "amount of nitrotyrosine protein in kidney tissues", "setting": "[4]", "value": "significantly reduced"}, {"measurement": "expression of NQO-1 gene in kidney", "setting": "[5]", "value": "statistically significant increase in the expression of NQO-1 gene"}]}]}
